Assay results taken from the supplement of paper PMC10307832.

Experiments:
Experiment in all cases: relative viability (nuclei count vs DMSO), 5 days (fraction); higher = more cells survive
KIN001-266 + Luminespib = compound: CCN1CCC(CC1)N2C=C(N=N2)CNC3=CC4=C(C(=CN=C4C(=C3)Cl)C#N)NC5=CC(=C(C=C5)F)Cl [KIN001-266] + CCNC(=O)c1noc(-c2cc(C(C)C)c(O)cc2O)c1-c1ccc(CN2CCOCC2)cc1 [Luminespib] (partner 0.01 µM)
Summary of the method: (§1)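 Relative viability is defined as nuclei in treated wells over nuclei in vehicle wells. Duplicate plates were run and medians reported. Lung cancer cell lines in 1536-well plates were dosed by pin tool one day after seeding, with one drug or with a fixed anchor-drug dose plus five library-drug doses (not always all listed) in √10 steps, and nuclei were counted after 5 days.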

KIN001-266 + Foretinib = compound: CCN1CCC(CC1)N2C=C(N=N2)CNC3=CC4=C(C(=CN=C4C(=C3)Cl)C#N)NC5=CC(=C(C=C5)F)Cl [KIN001-266] + COc1cc2c(Oc3ccc(NC(=O)C4(C(=O)Nc5ccc(F)cc5)CC4)cc3F)ccnc2cc1OCCCN1CCOCC1 [Foretinib] (partner 0.25 µM)
Summary of the method: as §1

KIN001-266 + Tozasertib = compound: CCN1CCC(CC1)N2C=C(N=N2)CNC3=CC4=C(C(=CN=C4C(=C3)Cl)C#N)NC5=CC(=C(C=C5)F)Cl [KIN001-266] + Cc1cc(Nc2cc(N3CCN(C)CC3)nc(Sc3ccc(NC(=O)C4CC4)cc3)n2)n[nH]1 [Tozasertib] (partner 0.1 µM)
Summary of the method: as §1

KIN001-266 + AZD7762 = compound: CCN1CCC(CC1)N2C=C(N=N2)CNC3=CC4=C(C(=CN=C4C(=C3)Cl)C#N)NC5=CC(=C(C=C5)F)Cl [KIN001-266] + NC(=O)Nc1cc(-c2cccc(F)c2)sc1C(=O)N[C@H]1CCCNC1 [AZD7762] (partner 0.2 µM)
Summary of the method: as §1

Cell Line	relative viability (KIN001-266 + Luminespib; first compound 0.08 µM)	relative viability (KIN001-266 + Luminespib; first compound 0.253 µM)	relative viability (KIN001-266 + Luminespib; first compound 0.8 µM)	relative viability (KIN001-266 + Luminespib; first compound 2.53 µM)	relative viability (KIN001-266 + Luminespib; first compound 8 µM)	relative viability (KIN001-266 + Foretinib; first compound 0.08 µM)	relative viability (KIN001-266 + Foretinib; first compound 0.253 µM)	relative viability (KIN001-266 + Foretinib; first compound 0.8 µM)	relative viability (KIN001-266 + Foretinib; first compound 2.53 µM)	relative viability (KIN001-266 + Foretinib; first compound 8 µM)	relative viability (KIN001-266 + Tozasertib; first compound 0.08 µM)	relative viability (KIN001-266 + Tozasertib; first compound 0.253 µM)	relative viability (KIN001-266 + Tozasertib; first compound 0.8 µM)	relative viability (KIN001-266 + Tozasertib; first compound 2.53 µM)	relative viability (KIN001-266 + Tozasertib; first compound 8 µM)	relative viability (KIN001-266 + AZD7762; first compound 0.08 µM)	relative viability (KIN001-266 + AZD7762; first compound 0.253 µM)	relative viability (KIN001-266 + AZD7762; first compound 0.8 µM)	relative viability (KIN001-266 + AZD7762; first compound 2.53 µM)	relative viability (KIN001-266 + AZD7762; first compound 8 µM)
NCI-H2342	0.745	0.716	0.689	0.721	0.865	1.09	1.04	1.17	1.15	1.07	0.524	0.506	0.584	0.627	0.414	0.559	0.492	0.451	0.431	0.545
NCI-H2347	0.846	0.009	0.41	0.358	0.269	1.04	0.622	0.746	0.844	0.632	0.521	0.5	0.558	0.518	0.367	0.77	0.799	0.771	0.736	0.537
NCI-H2405	0.743	0.712	0.628	0.701	0.516	1.06	1.02	1.02	1.05	0.713	0.763	0.792	0.746	0.684	0.455	0.761	0.752	0.865	0.739	0.488
NCI-H3122	0.0939	0.0878	0.106	0.123	0.098	0.98	0.961	0.94	0.918	0.914	0.428	0.389	0.389	0.378	0.37	0.937	1.15	1.08	0.947	0.956
PC-3 [JPC-3]	0.719	0.673	0.613	0.744	0.669	1.02	1.04	0.983	0.972	0.889	0.844	0.916	0.774	0.815	0.788	0.792	0.915	0.799	0.775	0.801
PC-14	0.167	0.117	0.171	0.225	0.152	0.907	1.04	0.743	0.979	0.503	0.577	0.655		0.589	0.432	0.365	0.405	0.315	0.355	0.3
RERF-LC-KJ	1.31	1.23	1.14	1.16	0.739	0.882	0.873	0.837	0.837	0.757	0.499	0.551	0.557	0.359	0.299	0.984	0.876	0.809	0.768	0.947
SW 900	0.143	0.177	0.154	0.173	0.167	1.08	0.987	0.908	0.835	0.697	0.741	0.584	0.567	0.482	0.491	0.639	0.601	0.527	0.522	0.327
